Assay results published in US8158635B2, “Solid forms comprising 4-[9-(tetrahydro-furan-3-yl)-8-(2,4,6-trifluoro-phenylamino)-9H-purin-2-ylamino]-cyclohexan-1-ol, compositions thereof, and uses therewith” (Signal Pharmaceuticals, LLC, priority 2006, dated 2012).
In brackets after ≈: the same amount, converted by molar mass. Where two headings read alike, the source gives them in different places.

Assay: Approximate solubilities of solid forms in solvents
Format: physicochemical
Details: thermodynamic from solid, about 25° C., at least 24 hours, read-out: Approximate Solubility (mg/mL) of Form A of the Free Base of Compound I
Description: A weighed sample comprising either the free base or the HCl salt of Compound I was treated with 2 mL of a solvent (either HPLC or reagent grade). The resulting mixture was agitated for at least 24 hours at about 25° C. When all of the solids were dissolved by visual inspection, the estimated solubility was calculated. The solubility was estimated from these experiments based on the total volume of solvent used to give a complete solution. The actual solubility may be greater than those calculated due to the use of a large amount of solvent or a slow rate of dissolution. A known volume of filtrate was evaporated to dryness and the weight of the residue was measured.

O[C@H]1CC[C@H](Nc2ncc3nc(Nc4c(F)cc(F)cc4F)n([C@H]4CCOC4)c3n2)CC1 (stereo in doubt) [Form A of the Free Base of Compound I, 4-[9-(tetrahydro-furan-3-yl)-8-(2,4,6-trifluoro-phenylamino)-9H-purin-2-ylamino]-cyclohexan-1-ol]
solubility (2-propanol, 25 °C, organic solvent or mixture, column 1, solvent 2-Propanol): 15.7 mg/mL (≈ 34.9 mM) | solubility (2-propanol, 25 °C, organic solvent or mixture, solvent 2-Propanol): 6.39 mg/mL (≈ 14.2 mM) | solubility (absolute ethanol, 25 °C, organic solvent or mixture, column 1, solvent Absolute ethanol): 47.1 mg/mL (≈ 105 mM) | solubility (absolute ethanol, 25 °C, organic solvent or mixture, solvent Absolute ethanol): > 50 mg/mL | solubility (acetone, 25 °C, organic solvent or mixture, column 1, solvent Acetone): 11.6 mg/mL (≈ 25.8 mM) | solubility (acetone, 25 °C, organic solvent or mixture, solvent Acetone): 1.14 mg/mL (≈ 2.54 mM) | solubility (acetonitrile, 25 °C, organic solvent or mixture, column 1, solvent Acetonitrile): 2.58 mg/mL (≈ 5.75 mM) | solubility (acetonitrile, 25 °C, organic solvent or mixture, solvent Acetonitrile): 1.56 mg/mL (≈ 3.48 mM) | solubility (ethanol/water (1/1), 25 °C, aqueous with cosolvent or surfactant or cyclodextrin, column 1, solvent Ethanol/Water (1/1)): 11.6 mg/mL (≈ 25.9 mM) | solubility (ethanol/water (1/1), 25 °C, aqueous with cosolvent or surfactant or cyclodextrin, solvent Ethanol/Water (1/1)): > 50 mg/mL | solubility (ethyl acetate, 25 °C, organic solvent or mixture, column 1, solvent Ethyl acetate): 3.91 mg/mL (≈ 8.72 mM) | solubility (ethyl acetate, 25 °C, organic solvent or mixture, solvent Ethyl acetate): 0.02 mg/mL (≈ 0.0446 mM) | solubility (heptane, 25 °C, organic solvent or mixture, column 1, solvent Heptane): 0.55 mg/mL (≈ 1.23 mM) | solubility (heptane, 25 °C, organic solvent or mixture, solvent Heptane): 0.51 mg/mL (≈ 1.14 mM) | solubility (methanol, 25 °C, organic solvent or mixture, column 1, solvent Methanol): > 50 mg/mL | solubility (methanol, 25 °C, organic solvent or mixture, solvent Methanol): > 50 mg/mL | solubility (methyl ethyl ketone, 25 °C, organic solvent or mixture, column 1, solvent Methyl ethyl ketone): 8.74 mg/mL (≈ 19.5 mM) | solubility (methyl ethyl ketone, 25 °C, organic solvent or mixture, solvent Methyl ethyl ketone): 0.68 mg/mL (≈ 1.52 mM) | solubility (methyl t-butyl ether, 25 °C, organic solvent or mixture, column 1, solvent Methyl t-butyl ether): 1.1 mg/mL (≈ 2.45 mM) | solubility (methylene chloride, 25 °C, organic solvent or mixture, column 1, solvent Methylene chloride): 11.6 mg/mL (≈ 25.8 mM) | solubility (methylene chloride, 25 °C, organic solvent or mixture, solvent Methylene chloride): 5 mg/mL (≈ 11.1 mM) | solubility (n-butanol, 25 °C, organic solvent or mixture, column 1, solvent n-Butanol): 19.3 mg/mL (≈ 43.1 mM) | solubility (n-butanol, 25 °C, organic solvent or mixture, solvent n-Butanol): 7.5 mg/mL (≈ 16.7 mM) | solubility (organic solvent or mixture, solvent Methyl t-butyl ether): 0.46 mg/mL (≈ 1.03 mM) | solubility (tetrahydrofuran, 25 °C, organic solvent or mixture, column 1, solvent Tetrahydrofuran): > 50 mg/mL | solubility (tetrahydrofuran, 25 °C, organic solvent or mixture, solvent Tetrahydrofuran): 2.03 mg/mL (≈ 4.53 mM) | solubility (toluene, 25 °C, organic solvent or mixture, column 1, solvent Toluene): 0.36 mg/mL (≈ 0.803 mM) | solubility (toluene, 25 °C, organic solvent or mixture, solvent Toluene): 0.04 mg/mL (≈ 0.0892 mM) | solubility (water, 25 °C, water, column 1, solvent Water): 0.41 mg/mL (≈ 0.914 mM) | solubility (water, 25 °C, water, solvent Water): > 50 mg/mL
